Series [1] in a line: Antioxidant activity assessed as trolox equivalent of ferric ion reducing activity using fe3+-TPTZ at 200 ug/ml by FRAP assay. The format is physicochemical.
Series [2] has as its system Mycolicibacterium smegmatis. As to the kind of experiment: Antimicrobial activity against Mycobacterium smegmatis ATCC 607 after 24 hrs by agar dilution method. The format is functional.
The subject of series [3] is Staphylococcus aureus. The series is described as follows: Antimicrobial activity against Staphylococcus aureus ATCC 25923 after 24 hrs by agar dilution method. Format: functional. To be noted: ATCC 25923, 24 h. (In agar dilution, organisms are placed on agar that contains the substance at set levels.)
For series [4], the system named is Yersinia pseudotuberculosis. To be noted: ATCC 911.
The nature of series [5]: Antioxidant activity assessed as DPPH scavenging activity at 10 ug/ml after 60 mins by spectrophotometry. The format is physicochemical. To be noted: 1 h. A general note: DPPH is a stable violet radical that fades when it is reduced.
Series [6] has as its system Bacillus cereus. The series is described as follows: Antimicrobial activity against Bacillus cereus 709 Roma after 24 hrs by agar dilution method. Format: functional.
For series [7], the system named is Candida albicans. As to the kind of experiment: Antimicrobial activity against Candida albicans ATCC 60193 after 24 hrs by agar dilution method. Format: functional, organism-based.
Series [8] has as its system Saccharomyces cerevisiae. The series is described as follows: Antimicrobial activity against Saccharomyces cerevisiae RSKK 251 after 24 hrs by agar dilution method. Format: functional, organism-based.
The subject of series [9] is Enterococcus faecalis. As to the kind of experiment: Antimicrobial activity against Enterococcus faecalis ATCC 29212 after 24 hrs by agar dilution method. Format: functional, organism-based.
The test system of series [10] is Escherichia coli. The series is described as follows: Antimicrobial activity against Escherichia coli ATCC 25922 after 24 hrs by agar dilution method. The format is functional, organism-based.
In series [11] the test system is Listeria monocytogenes. The series is described as follows: Antimicrobial activity against Listeria monocytogenes ATCC 43251 after 24 hrs by agar dilution method. The format is functional, organism-based.
Series [12] concerns Pseudomonas aeruginosa. The series is described as follows: Antimicrobial activity against Pseudomonas aeruginosa ATCC 10145 after 24 hrs by agar dilution method. Format: functional, organism-based.
Series [13] in a line: Antioxidant activity assessed as DPPH scavenging activity at 200 ug/ml after 60 mins by spectrophotometry. Format: physicochemical. To be noted: 1 h.

In brackets after ≈: the same amount, converted by molar mass. Activity calls are given as the source filed them.

A word on the MIC: it is the smallest concentration in the dilution series that meets the test's criterion for growth inhibition. Take `Cc1ccc(NC(=S)NNC(=O)Cn2nc(Cc3cccs3)n(N)c2=O)cc1`: the figures for the Activity in series [1] and in series [5] were 1257 µM and 88.2%, respectively. The MIC in [2] (ATCC 607, 24 h) amounted to 1610 mg/L (≈ 3.86 mM); in [3] it was 3220 mg/L (≈ 7.72 mM). In addition, the MIC entry in series [4], in series [6], in series [7], in [8], in series [9] and in [10] was “inactive” each time. For the same molecule, the MIC result in series [11] and in series [12] was “inactive” each time.

In the case of `Nn1c(Cc2cccs2)nn(CC(=O)NNC(=S)Nc2ccc(Br)cc2)c1=O`, the figures for the Activity in series [1] and in series [5] were 635 µM and 84.4%, respectively. Besides, the MIC in series [2] (ATCC 607, 24 h) was 950 mg/L (≈ 1.97 mM); in series [3], 950 mg/L (≈ 1.97 mM); in [6], 950 mg/L (≈ 1.97 mM). Besides, the MIC entry in series [4], in series [7], in series [8], in series [9], in [10] and in series [11] was “inactive” each time. The MIC result in [12] was “inactive”.

Turning to `Nn1c(Cc2cccs2)nn(CC(=O)NNC(=S)Nc2ccc(F)cc2)c1=O`, the Activity is 503 µM in series [1] and 69% in series [5]. The MIC entry in series [2], in series [4], in series [6], in series [7], in series [8] and in [9] was “inactive” in each case. In addition, the MIC entry in series [10], in [11] and in series [12] was “inactive” each time. Besides, in [3], the MIC was 2410 mg/L (≈ 5.72 mM).

Turning to `Nn1c(Cc2cccs2)nn(Cc2nnc(S)n2-c2ccc(Br)cc2)c1=O`, the values for the Activity in series [1] and in series [13] were 70 µM and 22.1%, respectively. Besides, the MIC in series [2] (ATCC 607, 24 h) turned out to be 1750 mg/L (≈ 3.77 mM); in series [3] it was 1750 mg/L (≈ 3.77 mM); in [6], 1750 mg/L (≈ 3.77 mM). The MIC entry in series [4], in series [7], in series [8], in [9], in series [10] and in series [11] was “inactive” in each case. The MIC result in series [12] was “inactive”.

On to `Nn1c(Cc2cccs2)nn(CC(=O)NNC(=S)Nc2ccccc2)c1=O`, for which the Activity in [1] was determined as 584 µM; in series [5], 83.4%. The MIC in [2] (ATCC 607, 24 h) was determined as 1260 mg/L (≈ 3.13 mM); in series [3], 2520 mg/L (≈ 6.26 mM); in series [6] it was 5050 mg/L (≈ 12.5 mM). Further, the MIC result in series [4], in series [7], in [8], in [9], in [10] and in series [11] was “inactive” in each case. Further, the MIC result in series [12] was “inactive”.

For the origin of these results see ChEMBL document CHEMBL3351382, “New thiophene-1,2,4-triazole-5(3)-ones: highly bioactive thiosemicarbazides, structures of Schiff bases and triazole-thiols” (Eur J Med Chem, 2014).
